Laboratory results published in patent US20010005752A1, “Fluorescent dyes (AIDA) for solid phase and solution phase screening” (priority 1998, published 2001).
Values belong to the compound of their own block, whether it stands above or below them.

Legend:
[1] = molecular target: T1, avidin (Gallus gallus, UniProt P02701); test: Fluorescence anisotropy as signal for binding to avidin
T1 construct: purchased Molecular Probes (Eugene, Oreg.) A-2767
Experimental: (§1) For solubility reasons, 4e is spectroscopically characterized in THF. All complexation reactions and fluorescence resonance energy transfer measurements are performed in PBS/5% DMSO at 25° C., unless indicated otherwise.
(§2) Fluorescence anisotropy is calculated according to [Lakowicz, 1983].
(§3) Spectral bandwidths are set to 4 and 8 nm for excitation and emission, respectively, with 5 seconds integration time. For calculation of fluorescence anisotropy ten data points are averaged.
(§4) This value is indicative for a small monomeric molecule rotating free in solution. […] When 1 μM of the BODIPY-FL labelled avidin was used as substrate the r-value was 0.100. This reduced change in anisotropy probably reflects the lower affinity of the BODIPY-FL labelled avidin as compared to the unlabelled material.

[2] = Steady-state fluorescence spectroscopy (excitation and emission spectra); assay type: physicochemical; conditions: for Emission range in parenthesis / Emission λmax / Excitation range in parenthesis / Excitation λmax: acetonitrile/2% DMSO
Experimental: Steady-state fluorescence measurements are performed on a SLM 8000C spectro-fluorometer equipped with JD490 photomultipliers and a 450 W Xenon Arclamp (SLM Instruments, Urbana, Ill.).
[…] Spectral bandwidths are set to 1 and 4 nm for excitation and emission, respectively. Spectra are recorded in single photon counting mode. Changes in lamp intensity are corrected with a quantum counter in the reference channel, measured in slow mode. Gain is set to x 100 with a high voltage (HV) of 640 V. Integration time is 2 seconds. For excitation spectra measurements, the emission wavelength is set to 397 nm and the sample is excited from 200 to 400 nm. For recording emission spectra, the sample is excited at 342 nm and the emission is recorded from 350 to 540 nm. The data are averaged over two scans.

[3] = molecular target: T2, BODIPY-FL labelled avidin (Gallus gallus, UniProt P02701); test: Fluorescence anisotropy with BODIPY-FL labelled avidin; assay type: binding; conditions: 50 nM conjugate, 1 μM BODIPY-FL labelled avidin
T2 construct: BODIPY FL (chemical fluorescent label, about 3.3 per avidin); purchased Molecular Probes (Eugene, Oreg.) A-2641
Experimental: as §1, §2, §3, §4

[4] = molecular target: T3, avidin-BODIPY-FL (Gallus gallus, UniProt P02701); test: FRET / quenching with avidin-BODIPY-FL (AIDA donor, BODIPY-FL acceptor); assay type: binding
T3 construct: BODIPY FL (chemical fluorescent label, about 3.3 per avidin); purchased Molecular Probes (Eugene, Oreg.) A-2641
Experimental: as §1
(§5) Spectral bandwidths are set to 8 and 16 nm for excitation and emission, respectively. Measurements are performed at 25° C. in a 750 μL quartz cuvette (10 mm optical pathlength) without stirring after initial mixing. A concentration of 50 nM of 9 or 11 is used for complexation with 1 μM of (fluorescent) avidin. […] All titrations are performed in magic angle setting, with the emission wavelength set to […] in experiments where the indazole is the acceptor, and with an excitation spectrum recorded from 250 nm to 360 nm. In experiments where indazole is used as donor and Lucifer Yellow or BODIPY FL is the acceptor, the excitation wavelength is set to 338 nm or 325 nm. The fluorescence emission is collected between 360 nm and 700 nm. The spectra are corrected for Raman scattering from the PBS solution, for dilution, and for inner filter effects due to protein additions, The signal is adjusted for lamp intensity changes by ratio mode detection with a Rhodamine B quantum counter in the reference channel. A WG 360 emission cutoff filter is used for straylight reduction. Data are collected in 2 nm increments with 1 second integration time.
In these experiments 11 was used as donor and BODIPY-FL as acceptor. At an excitation wavelength of 338 nm the emission of 11 between 360 nm and 516 nm is strongly quenched by approximately 80% in the complexed form. The standard definition for energy transfer efficiency, E=1−Fda/Fd, would result in E≅0.8. […] The approximately 80% reduction in signal intensity of 11 can be caused either by FRET or from local quenching of the fluorescence of 11 mainly by ground state interactions. […] Due to the broad fluorescence emission of 11 in water the detection wavelength can be shifted up to 500 nm which is at lower energy than most background fluorescence signals from small chemical compounds.

[5] = molecular target: T1, avidin; test: FRET / quenching with unlabelled avidin (tryptophan donor, AIDA acceptor); assay type: binding
Experimental: as §1, §5
An emission wavelength at 480 nm was chosen because the tryptophan fluorescence of avidin had almost reached the baseline level at this emission energy, resulting in only minor avidin fluorescence contribution between 250 and 370 nm. […] This quenching effect can be attributed to all radiative and non-radiative processes occurring to 11 in the vicinity of the tryptophans in the binding cleft. Corresponding to the ratio of the negative and positive areas under the fluorescence difference curve (black), 62% of this total quenching effect is fluorescence resonance energy transfer. From 250 to 305 nm the enhancement of the tryptophan and tyrosine fluorescence intensity is 72% based on the sum of 11 and avidin.

[6] = UV-Vis absorption spectroscopy; assay type: physicochemical; conditions: acetonitrile/2% DMSO
Experimental: UV-Vis absorption spectroscopy is performed on a Cary 1E spectrophotometer. […]
[…] […] From each stock solution, 5 dilutions with concentrations of 2.5 μm, 10 μM, 17 μM, 25 μm and 35 μM are made. UV-spectra of each dilution are recorded from 200 to 400 nm, using a quarz cuvette with a pathlength of 1 cm. […] A linear fit is carried out for each series of measurements. The extinction coefficient ε at 337 nm is given by the slope of the linear regression.

[7] = molecular target: T1, avidin; test: Time-resolved fluorescence depolarisation on binding of avidin; conditions: PBS/5% DMSO
Experimental: Picosecond time-resolved fluorescence measurements are recorded according to the single photon counting technique [Lakowicz, 1983 p 52-93, 112-153, 156-185]. An Ar^+-pumped Ti:Sapphire laser (model MIRA 900, Coherent, Santa Clara, USA) provided under mode-locked conditions ultrashort pulses (FWHM=150 fs) with a frequency of 75 MHz. To reduce the repetition rate to 4.7 MHz, a pulse picker (model 9200, Coherent, Santa Clara, USA) is inserted into the beam. […] Fluorescence photons are collected in a Spex 1681 single grating monochromator (Spex, Edison, USA) and detected with the Hamamatsu R3809U microchannel plate (Hamamatsu, Shimokanzo, Japan). […] The voltage values which correspond to the time passed between excitation and emission of a fluorescence photon in a single experiment are stored in the Spectrum Master 921 (Ortec, Oak Ridge, USA) which is connected to the multichannel emulation program Maestro (Ortec, Oak Ridge, USA). […]
c. Binding of AIDA conjugate 8 to avidin-BODIPY detected by rotational diffusion and energy transfer: Energy transfer between the indazole moiety in 8 and the 3.3 BODIPY-FL lables on avidin by time-resolved fluorescence spectroscopy.
Binding of avidin labelled with BODIPY-FL to 8 creates a further depolarisation mode for the indazole fluorescence: Fluorescence resonance energy transfer between the indazole moiety of 8 and the BODIPY-FL labels. […]

[8] = in acetonitrile; cited from earlier work
[9] = in acetonitrile; cited from earlier work; remark: listed apart in the source
[10] = unlabelled avidin, conjugate as acceptor

T1 sequence (P02701 25-152): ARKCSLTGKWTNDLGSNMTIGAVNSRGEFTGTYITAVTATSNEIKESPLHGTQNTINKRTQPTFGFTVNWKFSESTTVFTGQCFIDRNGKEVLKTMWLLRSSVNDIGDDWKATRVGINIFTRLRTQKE
T3 sequence (P02701 25-152): as above
T2 sequence (P02701 25-152): as above

- change of anisotropy on binding to avidin ([1]; 50 nM conjugate, 1 μM avidin): +444%
- fluorescence anisotropy bound to avidin ([1]; 50 nM conjugate, 1 μM avidin): 0.151
- basic fluorescence anisotropy (free conjugate) ([1]; 50 nM, excitation 338 nm, emission 438 nm, no avidin): 0.034
- emission maximum ([2]; 50 nM, PBS/5% DMSO, excitation 338 nm): 438 nm
- emission intensity at 500 nm ([2]; PBS buffer, 500 nm): about 50%
- Emission range in parenthesis [2]: 370-480 nm
- Emission λmax [2]: 397 nm
- Excitation range in parenthesis [2]: 310-360 nm
- Excitation λmax [2]: 336 nm
- fluorescence anisotropy (r-value) with BODIPY-FL labelled avidin [3]: 0.100
- energy transfer efficiency E=1−Fda/Fd ([4]; standard definition, stated as not valid here): ~0.8
- quenching of conjugate fluorescence by complexation in the avidin binding site ([5]; 50 nM conjugate, 1 μM unlabelled avidin, emission 480 nm): about 25.5%
- enhancement of tryptophan and tyrosine fluorescence intensity ([5]; 250 to 305 nm, based on the sum of 11 and avidin): 72%
- tryptophan to conjugate energy transfer relative to free avidin plus 11 ([5]; detected at 480 nm): 70%
- part of total quenching effect that is fluorescence resonance energy transfer ([5]; ratio of negative and positive areas under difference curve): 62%
- Absorption λmax [6]: 334 nm
- ε (at absorption λmax) [6]: 34349 M⁻¹ cm⁻¹
SMILES: C=CCOC(=O)c1ccc(-c2nn(-c3ccc(C(=O)N[C@@H](CCCCNC(=O)CCCCC4SCC5NC(=O)NC54)C(=O)O)cc3)c3ccccc23)cc1 (stereo partly drawn) [compound 11]

- fluorescence depolarisation on binding of avidin (unlabelled) [7]: slower depolarisation
- Emission range in parenthesis [2]: 360-480 nm
- Emission λmax [2]: 394 nm
- Excitation range in parenthesis [2]: 310-360 nm
- Excitation λmax [2]: 332 nm
- quenching of indazole (donor) emission in complex with avidin-BODIPY-FL ([4]; 50 nM conjugate, 1 μM avidin-BODIPY-FL, excitation 338 nm, emission 360-516 nm): 93.5%
- enhanced energy transfer (tryptophan/indazole) [5, 10]: 120%
- increase in indazole fluorescence emission on avidin complexation [5, 10]: 26%
- Absorption λmax [6]: 331 nm
- ε (at absorption λmax) [6]: 32158 M⁻¹ cm⁻¹
SMILES: NC(=O)c1ccc(-n2nc(-c3ccc(C(=O)NCCCNC(=O)CCCCC4SCC5NC(=O)NC54)cc3)c3ccccc32)cc1 (stereo not drawn) [compound 8, 3′(+)-4-{3-[4-(3′-Biotinoylaminopropyl)-aminocarbonyl]phenyl-1H-indazol-1-yl}-benzoic acid Amide]
- fluoresence energy transfer (acceptor sensitization) ([4]; avidin-BODIPY complex): 48%

SMILES: c1ccc2[nH]ncc2c1 [1H-indazole]
- maximum of absorption [8]: 294 nm
- maximum of fluorescence emission [9]: 298 nm
